Measurements: patent US11357779B2 (G1 Therapeutics, Inc., priority 2018, dated 2022)

Experiment: Adverse events by CTCAE grade and frequency, all dosing cohorts
Type: in vivo, human
Conditions: adverse event frequency
Text: Patients were enrolled into 1 of 2 parallel, independently operating, dose-escalation dosing cohorts with Form B of Compound II administered continuously either once daily (QD) or twice daily (BID) with food with fixed-dose fulvestrant (intramuscularly every 14 days for the first three injections and then every 28 days). Pre- or perimenopausal patients also received goserelin for the duration of study treatment. A […] agonist was started at least 28 days before the first dose of Form B, and those patients who were taking another LHRH agonist were switched to goserelin on Day 1. Patients were split into […] cohorts providing once a day (QD) dosing of 200 mg, 300 mg, 400 mg, 500 mg, or 650 mg of Form B, or twice a day (BID) dosing of 100 mg, 150 mg, or 200 mg of Form B. The second dose in BID cohorts was not administered in the evening until at least 12 hours after the initial morning dose of Form B. The dosing cohorts for Form B of Compound II are provided in Table 1.

In the case of CC(C)N1CCN(c2ccc(Nc3ncc4cc5n(c4n3)C3(CCCCC3)CNC5=O)nc2)CC1 [Form B], the ALT increase (Dose 100 mg BID) is reported as 0, the AST increased (Dose 100 mg BID) is reported as 0 and the Anemia (Dose 100 mg BID) is reported as 2. The BUN increased (Dose 100 mg BID) was 0, the Diarrhea (Dose 100 mg BID) was 1 and the Fatigue (Dose 100 mg BID) was 1. The Febrile neutropenia (Dose 100 mg BID) was 0, the GGT increased (Dose 100 mg BID) was 0 and the Hematuria (Dose 100 mg BID) was 1. The Leukopenia (Dose 100 mg BID) was 3, the Lymphopenia (Dose 100 mg BID) was 0 and the Metrorrhagia (Dose 100 mg BID) was 0. For the same molecule, the Nausea (Dose 100 mg BID) was 2, the Neutropenia (Dose 100 mg BID) was 4 and the SCr increased (Dose 100 mg BID) was 1. It also gave a Stomatitis (Dose 100 mg BID) of 0, a Thrombocytopenia (Dose 100 mg BID) of 1 and a Vomiting (Dose 100 mg BID) of 0. The ALT increase (Dose 150 mg BID) was 0, the AST increased (Dose 150 mg BID) was 0 and the Anemia (Dose 150 mg BID) was 1. It also gave a BUN increased (Dose 150 mg BID) of 0, a Diarrhea (Dose 150 mg BID) of 2 and a Fatigue (Dose 150 mg BID) of 1. It also gave a Febrile neutropenia (Dose 150 mg BID) of 1, a GGT increased (Dose 150 mg BID) of 0 and a Hematuria (Dose 150 mg BID) of 1. For the same molecule, the Leukopenia (Dose 150 mg BID) was 3, the Lymphopenia (Dose 150 mg BID) was 0 and the Metrorrhagia (Dose 150 mg BID) was 1. The Nausea (Dose 150 mg BID) was 1, the Neutropenia (Dose 150 mg BID) was 3 and the SCr increased (Dose 150 mg BID) was 0. It also gave a Stomatitis (Dose 150 mg BID) of 1, a Thrombocytopenia (Dose 150 mg BID) of 1 and a Vomiting (Dose 150 mg BID) of 1. It also gave an ALT increase (Dose 200 mg BID) of 0, an AST increased (Dose 200 mg BID) of 0 and an Anemia (Dose 200 mg BID) of 0. For the same molecule, the BUN increased (Dose 200 mg BID) was 0, the Diarrhea (Dose 200 mg BID) was 1 and the Fatigue (Dose 200 mg BID) was 1. For the same molecule, the Febrile neutropenia (Dose 200 mg BID) was 0, the GGT increased (Dose 200 mg BID) was 0 and the Hematuria (Dose 200 mg BID) was 0. For the same molecule, the Leukopenia (Dose 200 mg BID) was 1, the Lymphopenia (Dose 200 mg BID) was 0 and the Metrorrhagia (Dose 200 mg BID) was 0. For the same molecule, the Nausea (Dose 200 mg BID) was 1, the Neutropenia (Dose 200 mg BID) was 2 and the SCr increased (Dose 200 mg BID) was 0. It also gave a Stomatitis (Dose 200 mg BID) of 0, a Thrombocytopenia (Dose 200 mg BID) of 0 and a Vomiting (Dose 200 mg BID) of 0. The ALT increase (Dose 200 mg QD) was 0, the AST increased (Dose 200 mg QD) was 0 and the Anemia (Dose 200 mg QD) was 3. The BUN increased (Dose 200 mg QD) was 1, the Diarrhea (Dose 200 mg QD) was 1 and the Fatigue (Dose 200 mg QD) was 0. The Febrile neutropenia (Dose 200 mg QD) was 0, the GGT increased (Dose 200 mg QD) was 0 and the Hematuria (Dose 200 mg QD) was 1. The Leukopenia (Dose 200 mg QD) was 4, the Lymphopenia (Dose 200 mg QD) was 1 and the Metrorrhagia (Dose 200 mg QD) was 0. The Nausea (Dose 200 mg QD) was 0, the Neutropenia (Dose 200 mg QD) was 4 and the SCr increased (Dose 200 mg QD) was 0. The Stomatitis (Dose 200 mg QD) was 0, the Thrombocytopenia (Dose 200 mg QD) was 0 and the Vomiting (Dose 200 mg QD) was 0. The ALT increase (Dose 300 mg QD) was 0, the AST increased (Dose 300 mg QD) was 0 and the Anemia (Dose 300 mg QD) was 1. The BUN increased (Dose 300 mg QD) was 1, the Diarrhea (Dose 300 mg QD) was 2 and the Fatigue (Dose 300 mg QD) was 1. It also gave a Febrile neutropenia (Dose 300 mg QD) of 0, a GGT increased (Dose 300 mg QD) of 0 and a Hematuria (Dose 300 mg QD) of 1. The Leukopenia (Dose 300 mg QD) was 2, the Lymphopenia (Dose 300 mg QD) was 0 and the Metrorrhagia (Dose 300 mg QD) was 0. It also gave a Nausea (Dose 300 mg QD) of 2, a Neutropenia (Dose 300 mg QD) of 3 and an SCr increased (Dose 300 mg QD) of 0. For the same molecule, the Stomatitis (Dose 300 mg QD) was 0, the Thrombocytopenia (Dose 300 mg QD) was 1 and the Vomiting (Dose 300 mg QD) was 2. The ALT increase (Dose 400 mg QD) was 1, the AST increased (Dose 400 mg QD) was 1 and the Anemia (Dose 400 mg QD) was 2. The BUN increased (Dose 400 mg QD) was 0, the Diarrhea (Dose 400 mg QD) was 2 and the Fatigue (Dose 400 mg QD) was 2. The Febrile neutropenia (Dose 400 mg QD) was 0, the GGT increased (Dose 400 mg QD) was 1 and the Hematuria (Dose 400 mg QD) was 1. It also gave a Leukopenia (Dose 400 mg QD) of 0, a Lymphopenia (Dose 400 mg QD) of 0 and a Metrorrhagia (Dose 400 mg QD) of 0. The Nausea (Dose 400 mg QD) was 3, the Neutropenia (Dose 400 mg QD) was 3 and the SCr increased (Dose 400 mg QD) was 0. The Stomatitis (Dose 400 mg QD) was 0, the Thrombocytopenia (Dose 400 mg QD) was 1 and the Vomiting (Dose 400 mg QD) was 3. For the same molecule, the ALT increase (Dose 500 mg QD) was 1, the AST increased (Dose 500 mg QD) was 0 and the Anemia (Dose 500 mg QD) was 2. For the same molecule, the BUN increased (Dose 500 mg QD) was 0, the Diarrhea (Dose 500 mg QD) was 1 and the Fatigue (Dose 500 mg QD) was 1. It also gave a Febrile neutropenia (Dose 500 mg QD) of 0, a GGT increased (Dose 500 mg QD) of 0 and a Hematuria (Dose 500 mg QD) of 0.
